Data published in the NIST ThermoML archive (doi:10.1021/je700648c).
“And” between values parts separate entries of the source, which are not always exact repeats. Equal values may be shown once.

Columns and labels:
[1] = 101 kPa, Liquid
[2] = xn = mol fraction of the nth substance listed; conditions: 101 kPa, Liquid

CCn1cc[n+](C)c1.O=S(=O)([N-]S(=O)(=O)C(F)(F)C(F)(F)F)C(F)(F)C(F)(F)F
[1]
Conditions	mass density
298.15 K	1593.2 kg/m3
303.15 K	1587.6 kg/m3 and 1587.3 kg/m3
313.15 K	1576.7 kg/m3

CCn1cc[n+](C)c1.O=S(=O)([N-]S(=O)(=O)C(F)(F)C(F)(F)F)C(F)(F)C(F)(F)F + CC(C)=O
mass density [kg/m3], [2]
Conditions	298.15 K	303.15 K	313.15 K
x2 = 0	1593.2	1587.3	1576.7
x2 = 0.0807	1576.8	1571.1	1560.2
x2 = 0.1417	1563.1	1557.4	1546.4
x2 = 0.2521	1534.6	1528.8	1517.7
x2 = 0.2791	1526.6	1520.8	1509.6
x2 = 0.415	1479.2	1473.3	1462.2
x2 = 0.5195	1431.8	1425.8	1414.8
x2 = 0.5676	1405.5	1399.5	1388.4
x2 = 0.7092	1303.1	1297.2	1285.7
x2 = 0.755	1258.2	1252.2	1240.8
x2 = 0.8137	1188.4	1182.5	1170.8
x2 = 0.8927	1062	1055.9	1044.3
x2 = 0.9502	935	929.1	917.6

CCn1cc[n+](C)c1.O=S(=O)([N-]S(=O)(=O)C(F)(F)C(F)(F)F)C(F)(F)C(F)(F)F + CO
mass density [kg/m3], [2]
Conditions	x2 = 0	x2 = 0.0584	x2 = 0.1116	x2 = 0.1686	x2 = 0.2956	x2 = 0.5104	x2 = 0.6083	x2 = 0.706	x2 = 0.8237	x2 = 0.9033
298.15 K	1593.2	1586.2	1579.4	1571.3	1549.7	1494.6	1455.3	1398.9	1285.9	1148.2
303.15 K	1587.6	1580.5	1573.7	1565.6	1544	1488.9	1449.6	1393.2	1280.2	1142.6
313.15 K	1576.7	1569.5	1562.6	1554.5	1532.8	1477.7	1438.3	1382	1269.3	1132

CCn1cc[n+](C)c1.COCCOCCOS(=O)(=O)[O-] [1-ethyl-3-methylimidazolium 2-(2-methoxyethoxy) ethylsulfate] + CO
[2], 298.15 K
Conditions	speed of sound [m/s]
x2 = 0.1791	1677.6
x2 = 0.356	1647
x2 = 0.4548	1620
x2 = 0.5356	1597.2
x2 = 0.6298	1563.6
x2 = 0.7412	1499.4
x2 = 0.7987	1453.2
x2 = 0.8527	1387.5
x2 = 0.9011	1324.8
x2 = 0.9298	1270.8
x2 = 0.962	1201.2
x2 = 0.9829	1158

CC(C)=O [acetone]
[1]
Conditions	mass density [kg/m3]
298.15 K	784.1
303.15 K	778.4
313.15 K	766.9

CC(C)=O [acetone] + CCn1cc[n+](C)c1.O=S(=O)([N-]S(=O)(=O)C(F)(F)C(F)(F)F)C(F)(F)C(F)(F)F
[2], x1 = 1
Conditions	mass density [kg/m3]
298.15 K	784.1
303.15 K	778.4
313.15 K	766.9

CO [methanol] + CCn1cc[n+](C)c1.O=S(=O)([N-]S(=O)(=O)C(F)(F)C(F)(F)F)C(F)(F)C(F)(F)F
[2], x1 = 1
Conditions	mass density [kg/m3]
298.15 K	786.6
303.15 K	781.9
313.15 K	772.6
